From patent US20240208907A1, “GPR52 MODULATORS AND METHODS OF USE” (Neurocrine Biosciences, Inc., priority 2021, published 2024)
Structures can show the parent of a compound that is named as a salt.

Biological target: T1, recombinant human GPR52 (Homo sapiens, UniProt Q9Y2T5)
T1 construct: expressed in transfected cells
Assay: GPR52 activity: TR-FRET cAMP assay (LANCE Ultra cAMP Kit)
Type: cell-based
Settings: Flp-In-CHO cells stably expressing recombinant human GPR52; cAMP production, normalized to positive control
Experimental: TR-FRET cAMP assays were performed using commercially available assay kits (LANCE™ Ultra cAMP Kit). Controls and compounds were solubilized in DMSO using ½ log dilution to generate duplicate 10-point dose response curves in 384-well polypropylene compound plates. Sixty nanoliters of the diluted compounds were transferred into 384-well NBS assay plates and further diluted to 1× with the addition of 2000 cells per well. Flp-In™-CHO cells that stably express recombinant human GPR52.
Cells were harvested with cell stripper and resuspended in Stimulation Buffer (5 mM HEPES, 0.1% bovine serum albumin (BSA), 0.5 mM IBMX, pH 7.4). After thirty minutes incubation at room temperature, detection reagents were added to each well. Plates were then incubated for 30 minutes at room temperature. The LANCE™ Ultra cAMP assay uses time-resolved fluorescence resonance energy transfer (TR-FRET) to detect cAMP production; this signal was quantified using a Pherastar multi-mode plate reader.
Dose-response curves were generated from the fluorescence counts normalized to the positive control. E EC50 values were obtained using a nonlinear regression curve-fitting program.

T1 sequence (Q9Y2T5 whole entry): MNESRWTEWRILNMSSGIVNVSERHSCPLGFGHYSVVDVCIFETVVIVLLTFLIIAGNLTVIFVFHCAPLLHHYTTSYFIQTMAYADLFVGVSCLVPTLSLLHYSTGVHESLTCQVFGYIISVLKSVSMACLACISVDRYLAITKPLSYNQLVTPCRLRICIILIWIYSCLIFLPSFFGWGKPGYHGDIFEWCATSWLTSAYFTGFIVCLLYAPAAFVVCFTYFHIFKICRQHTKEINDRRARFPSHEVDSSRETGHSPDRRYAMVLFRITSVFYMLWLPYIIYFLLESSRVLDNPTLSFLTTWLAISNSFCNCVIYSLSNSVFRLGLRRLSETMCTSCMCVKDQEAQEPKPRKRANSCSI

| SMILES | EC50 [nM] |
| --- | --- |
| Cc1cc(Cc2ccnc(-c3cccc(C(N)=O)c3)c2)ccc1F [Compound 19, 3-{4-[(4-fluoro-3-methylphenyl)methyl]pyridin-2-yl}benzamide] | 25 to 100 |
| Cc1cc(-c2cc(Cc3cccc(C(F)(F)F)c3)ccn2)ccc1C(=O)NCCO [Compound 36, N-(2-hydroxyethyl)-2-methyl-4-(4-{[3-(trifluoromethyl)phenyl]methyl}pyridin-2-yl)benzamide] | 25 to 100 |
| CSc1cccc(Cc2ccnc(-c3ccc(C(N)=O)c(C)c3)c2)c1 [Compound 5, 2-methyl-4-(4-{[3-(methylsulfanyl)phenyl]methyl}pyridin-2-yl)benzamide] | < 25 |
| N#Cc1cc(Cc2ccnc(-c3ccc(C(N)=O)c(F)c3)c2)cc(F)c1F [Compound 24, 4-{4-[(3-cyano-4,5-difluorophenyl)methyl]pyridin-2-yl}-2-fluorobenzamide] | 101 to 1000 |
| Cc1cc(-c2cc(Cc3cccc(S(C)(=O)=O)c3)ccn2)ccc1C(N)=O [Compound 11, 4-{4-[(3-methanesulfonylphenyl)methyl]pyridin-2-yl}-2-methylbenzamide hydrochloride] | 25 to 100 |
| Cc1cc(F)cc(Cc2ccnc(-c3ccc(C(N)=O)cc3)c2)c1 [Compound 28, 4-{4-[(3-fluoro-5-methylphenyl)methyl]pyridin-2-yl}benzamide] | 101 to 1000 |
| NC(=O)Cc1ccc(-c2cc(Cc3cccc(C(F)(F)F)c3)ccn2)cc1 [Compound 18, 2-[4-(4-{[3-(trifluoromethyl)phenyl]methyl}pyridin-2-yl)phenyl]acetamide] | 25 to 100 |
| NC(=O)c1ccc(-c2cc(Cc3cc(C(F)(F)F)ccc3F)ccn2)cc1 [Compound 39, 4-(4-{[2-fluoro-5-(trifluoromethyl)phenyl]methyl}pyridin-2-yl)benzamide] | 101 to 1000 |
| Cc1cc(-c2cc(Cc3ccc(F)c(C#N)c3)ccn2)ccc1C(N)=O [Compound 8, 4-{4-[(3-cyano-4-fluorophenyl)methyl]pyridin-2-yl}-2-methylbenzamide] | 25 to 100 |
| Cc1cc(-c2cccc(Cc3cccc(C(F)(F)F)c3)n2)ccc1C(N)=O [Compound 12, 2-methyl-4-(6-{[3-(trifluoromethyl)phenyl]methyl}pyridin-2-yl)benzamide] | 25 to 100 |
| Cc1cc(-c2cc(Cc3cccc(C(F)(F)F)c3)ccn2)ccc1C(N)=O [Compound 1, 2-methyl-4-(4-{[3-(trifluoromethyl)phenyl]methyl}pyridin-2-yl)benzamide] | < 25 |
| Cc1cc(-c2cc(Cc3cccc(C(F)(F)F)c3)ccn2)ccc1C(=O)N1CCNCC1 [Compound 35, 1-[2-methyl-4-(4-{[3-(trifluoromethyl)phenyl]methyl}pyridin-2-yl)benzoyl]piperazine hydrochloride] | < 25 |
| NC(=O)c1cccc(-c2cc(Cc3cc(F)cc(Cl)c3)ccn2)c1 [Compound 25, 3-{4-[(3-chloro-5-fluorophenyl)methyl]pyridin-2-yl}benzamide] | 101 to 1000 |
| Cc1cc(-c2cc(Cc3cc(F)c(F)c(Cl)c3)ccn2)ccc1C(N)=O [Compound 2, 4-{4-[(3-chloro-4,5-difluorophenyl)methyl]pyridin-2-yl}-2-methylbenzamide] | < 25 |
| COc1ccc(Cc2ccnc(-c3cccc(C(N)=O)c3)c2)cc1F [Compound 29, 3-{4-[(3-fluoro-4-methoxyphenyl)methyl]pyridin-2-yl}benzamide] | 101 to 1000 |
| NC(=O)c1ccc(-c2cc(Cc3cccc(OC(F)(F)F)c3)ccn2)cc1 [Compound 26, 4-(4-{[3-(trifluoromethoxy)phenyl]methyl}pyridin-2-yl)benzamide] | 101 to 1000 |
| Cc1cc(-c2cc(Cc3cncc(S(C)(=O)=O)c3)ccn2)ccc1C(N)=O [Compound 44, 4-{4-[(5-methanesulfonylpyridin-3-yl)methyl]pyridin-2-yl}-2-methylbenzamide] | < 25 |
| NC(=O)c1ccc(-c2cc(Cc3ccc(F)c(C(F)(F)F)c3)ccn2)cc1 [Compound 23, 4-(4-{[4-fluoro-3-(trifluoromethyl)phenyl]methyl}pyridin-2-yl)benzamide] | 101 to 1000 |
| N#Cc1cc(F)cc(Cc2ccnc(-c3ccc(C(N)=O)cc3)c2)c1 [Compound 40, 4-{4-[(3-cyano-5-fluorophenyl)methyl]pyridin-2-yl}benzamide] | > 1000 |
| CS(=O)(=O)c1cccc(Cc2ccnc(-c3ccc(C(N)=O)cc3)c2)c1 [Compound 27, 4-{4-[(3-methanesulfonylphenyl)methyl]pyridin-2-yl}benzamide] | 101 to 1000 |
| Cc1cc(Cc2ccnc(-c3ccc(C(N)=O)cc3)c2)ccc1F [Compound 10, 4-{4-[(4-fluoro-3-methylphenyl)methyl]pyridin-2-yl}benzamide] | 25 to 100 |

| SMILES | EC50 [nM] |
| --- | --- |
| N#Cc1cc(Cc2ccnc(-c3cccc(C(N)=O)c3)c2)cc(F)c1F [Compound 38, 3-{4-[(3-cyano-4,5-difluorophenyl)methyl]pyridin-2-yl}benzamide] | 101 to 1000 |
| COc1cc(Cc2ccnc(-c3ccc(C(N)=O)c(C)c3)c2)cc(F)c1F [Compound 4, 4-{4-[(3,4-difluoro-5-methoxyphenyl)methyl]pyridin-2-yl}-2-methylbenzamide] | < 25 |
| COc1ccc(Cc2ccnc(-c3ccc(C(N)=O)cc3)c2)cc1F [Compound 20, 4-{4-[(3-fluoro-4-methoxyphenyl)methyl]pyridin-2-yl}benzamide] | 101 to 1000 |
| Cc1cc(-c2cc(Cc3cc(F)cc(C#N)c3)ccn2)ccc1C(N)=O [Compound 3, 4-{4-[(3-cyano-5-fluorophenyl)methyl]pyridin-2-yl}-2-methylbenzamide] | < 25 |
| COc1cc(-c2cc(Cc3cc(F)c(F)c(C#N)c3)ccn2)ccc1C(N)=O [Compound 13, 4-{4-[(3-cyano-4,5-difluorophenyl)methyl]pyridin-2-yl}-2-methoxybenzamide] | 25 to 100 |
| Cc1cc(F)cc(Cc2ccnc(-c3cccc(C(N)=O)c3)c2)c1 [Compound 22, 3-{4-[(3-fluoro-5-methylphenyl)methyl]pyridin-2-yl}benzamide] | 101 to 1000 |
| N#Cc1cc(Cc2ccnc(-c3cccc(CC(N)=O)c3)c2)cc(F)c1F [Compound 33, 2-(3-{4-[(3-cyano-4,5-difluorophenyl)methyl]pyridin-2-yl}phenyl)acetamide] | 101 to 1000 |
| NC(=O)c1ccc(-c2cc(Cc3cc(F)cc(Cl)c3)ccn2)cc1 [Compound 21, 4-{4-[(3-chloro-5-fluorophenyl)methyl]pyridin-2-yl}benzamide] | 101 to 1000 |
| Cc1cc(-c2cc(Cc3cccc(S(C)(=O)=O)c3)c(F)cn2)ccc1C(N)=O [Compound 31, 4-{5-fluoro-4-[(3-methanesulfonylphenyl)methyl]pyridin-2-yl}-2-methylbenzamide hydrochloride] | 25 to 100 |
| N#Cc1cc(Cc2ccnc(-c3ccc(C(N)=O)c(C(F)(F)F)c3)c2)cc(F)c1F [Compound 6, 4-{4-[(3-cyano-4,5-difluorophenyl)methyl]pyridin-2-yl}-2-(trifluoromethyl)benzamide] | < 25 |
| Cc1cc(-c2cc(C(O)c3cccc(C(F)(F)F)c3)ccn2)ccc1C(N)=O (centres unmarked) [Compound 43, 4-(4-{hydroxy [3-(trifluoromethyl)phenyl]methyl}pyridin-2-yl)-2-methylbenzamide] | > 1000 |
| Cc1cc(-c2cc(Cc3cc(F)c(F)c(C#N)c3)c(F)cn2)ccc1C(N)=O [Compound 9, 4-{4-[(3-cyano-4,5-difluorophenyl)methyl]-5-fluoropyridin-2-yl}-2-methylbenzamide] | 25 to 100 |
| NC(=O)Cc1cccc(-c2cc(Cc3cccc(C(F)(F)F)c3)ccn2)c1 [Compound 16, 2-[3-(4-{[3-(trifluoromethyl)phenyl]methyl}pyridin-2-yl)phenyl]acetamide] | 25 to 100 |
| Cc1cc(-c2cc(Cc3cc(F)c(F)c(C#N)c3)ccn2)cc(F)c1C(N)=O [Compound 15, 4-{4-[(3-cyano-4,5-difluorophenyl)methyl]pyridin-2-yl}-2-fluoro-6-methylbenzamide] | 25 to 100 |
| NC(=O)C1CCN(c2cc(Cc3cccc(C(F)(F)F)c3)ccn2)CC1 [Compound 41, 1-(4-{[3-(trifluoromethyl)phenyl]methyl}pyridin-2-yl)piperidine-4-carboxamide] | 25 to 100 |
| NC(=O)c1ccc(-c2cc(Cc3cc(F)cc(C(F)(F)F)c3)ccn2)cc1 [Compound 14, 4-(4-{[3-fluoro-5-(trifluoromethyl)phenyl]methyl}pyridin-2-yl)benzamide] | 25 to 100 |
| Cc1cc(-c2cc(Cc3cccc(C(F)(F)F)c3)ccn2)ccc1C(=O)NCCCO [Compound 37, N-(3-hydroxypropyl)-2-methyl-4-(4-{[3-(trifluoromethyl)phenyl]methyl}pyridin-2-yl)benzamide] | 25 to 100 |
| N#Cc1cc(Cc2ccnc(-c3ccc(C(N)=O)cc3)c2)cc(F)c1F [Compound 30, 4-{4-[(3-cyano-4,5-difluorophenyl)methyl]pyridin-2-yl}benzamide hydrochloride] | 101 to 1000 |
| Cc1cc(-c2cc(Cc3cc(F)c(F)c(C#N)c3)ccn2)ccc1C(N)=O [Compound 7, 4-{4-[(3-cyano-4,5-difluorophenyl)methyl]pyridin-2-yl}-2-methylbenzamide] | 25 to 100 |
| Cc1cc(-c2cc(Cc3cccc(S(=O)(=O)C(F)(F)F)c3)ccn2)ccc1C(N)=O [Compound 34, 2-methyl-4-{4-[(3-trifluoromethanesulfonylphenyl)methyl]pyridin-2-yl}benzamide hydrochloride] | 101 to 1000 |
